Some results are limits rather than exact numbers.

This assay deals with NFkB activity. The experiment in a line: Glucocorticoid mediated transrepression of NFkB activity (A549 cells, ELAM promoter alkaline phosphatase reporter, TNFα). In kind it is cell-based. To be noted: Homo sapiens, A549, 16 h, Human A549 lung epithelial cells, 3 ng/ml human recombinant TNFα, read-out: pIC50, transrepression of NFkB activity (converted). From the text: Human A549 lung epithelial cells were engineered to contain a secreted placental alkaline phosphatase gene under the control of the distal region of the NFkB dependent ELAM promoter as previously described in Ray, K. P., Farrow, S., Daly, M., Talabot, F. and Searle, N. “Induction of the E-selectin promoter by interleukin 1 and tumour necrosis factor alpha, and inhibition by glucocorticoids” Biochemical Journal (1997) 328: 707-15.
Compounds were solvated and diluted in DMSO, and transferred directly into assay plates such that the final concentration of DMSO was 0.7%. Following the addition of cells (40K per well), plates were incubated for 1 hr prior to the addition of 3 ng/ml human recombinant TNFα. Following continued incubation for 16 hr, alkaline phosphatase activity was determined by measuring the change in optical density at 405 nm with time following the addition of 0.7 volumes of assay buffer (1 mg/ml p-nitrophenylphosphate dissolved in 1M diethanolamine, 0.28M NaCl, 0.5 mM MgCl2). Dose response curves were constructed from which EC50 values were estimated.
Take `CCc1nc(NCC(O)(CC(C)(C)c2cccc3c2OCC3)C(F)(F)F)c2cnn(-c3ccccc3)c2n1` (stereo not shown) [Example 5, 4-(2,3-Dihydro-1-benzofuran-7-yl)-2-{[(6-ethyl-1-phenyl-1H-pyrazolo[3,4-d]pyrimidin-4-yl)amino]methyl}-1,1,1-trifluoro-4-methyl-2-pentanol]: the IC50 was less than 100 nM.

On to `Cc1nc(NCC(O)(CC(C)(C)c2cc(F)ccc2O)C(F)(F)F)c2cnn(-c3ccc(F)cc3F)c2n1` (single isomer, unassigned) [Example 25, 2-[3-({[1-(2,4-Difluorophenyl)-6-methyl-1H-pyrazolo[3,4-d]pyrimidin-4-yl]amino}methyl)-4,4,4-trifluoro-3-hydroxy-1,1-dimethylbutyl]-4-fluorophenol], for which the IC50 is less than 100 nM. Under `Cc1nc(NCC(O)(CC(C)(C)c2cccc3c2OCC3)C(F)(F)F)c2cnn(-c3ccc(F)cc3F)c2n1` (stereo not shown) [Example 4, 2-({[1-(2,4-Difluorophenyl)-6-methyl-1H-pyrazolo[3,4-d]pyrimidin-4-yl]amino}methyl)-4-(2,3-dihydro-1-benzofuran-7-yl)-1,1,1-trifluoro-4-methyl-2-pentanol] stands less than 100 nM; under `CCc1nc(NCC(O)(CC(C)(C)c2cccc3c2OCC3)C(F)(F)F)c2cnn(-c3cccnc3)c2n1` (stereo not shown) [Example 9, 4-(2,3-Dihydro-1-benzofuran-7-yl)-2-({[6-ethyl-1-(3-pyridinyl)-1H-pyrazolo[3,4-d]pyrimidin-4-yl]amino}methyl)-1,1,1-trifluoro-4-methyl-2-pentanol], less than 100 nM.

(Values after patent US20080292561A1, “Pyrazolo-Pyrimidine Derivatives as Anti-Inflammatory Agents” (Glaxo Group Limited, priority 2005, published 2008).)
